Experimental data: publication PMC4992173, “Divergent synthesis and identification of the cellular targets of deoxyelephantopins” (Nature Communications, 2016)
pIC50: −log10 of the molar value.

Molecular target: T1, PPARγ D174A (Homo sapiens, UniProt P37231, D174A)
T1 construct: host or cells: 293T
Assay: Gel-based competitive IC50 determination in 293T lysates: D174A PPARγ
Assay type: binding
Settings: D174A PPARγ expressed in 293T cells, lysate, 1 h, then 10 μM 24c-Cy3
Excerpt: Finally, we sought to understand the molecular basis for PPARγ binding by the synthetic analogues of deoxyelephantopin through identification of the precise covalently modified amino acid site. There is literature precedent for oxidized fatty acids containing an α,β-unsaturated ketone to form a covalent bond with a cysteine in the ligand-binding site of PPARγ[53]. More recently, synthetic ligands binding reversibly to a distinct site were identified. […] Bearing in mind that the structurally simplified, and thus less prone to MS/MS fragmentation, probe 23c binds PPARγ as efficiently as 24c (Supplementary Fig. 13), we treated the recombinant nuclear receptor with the former compound, digested the protein and analysed the resulting peptides by LC–MS/MS. […]
Supplementary figure 21: Top: Fluorescence gels corresponding to the IC50 curves presented in the main text Figure 8b. γ fluorescence signal in percentage after 19a treatment. […]
Biological materials. […] Protein concentration was determined using the Bradford assay (Bio-Rad).
Cell culture and preparation of lysates. […] Cells were lysed by sonication to form cell lysates and protein concentration was determined using the Bradford […]

T1 sequence (P37231 whole entry D174A): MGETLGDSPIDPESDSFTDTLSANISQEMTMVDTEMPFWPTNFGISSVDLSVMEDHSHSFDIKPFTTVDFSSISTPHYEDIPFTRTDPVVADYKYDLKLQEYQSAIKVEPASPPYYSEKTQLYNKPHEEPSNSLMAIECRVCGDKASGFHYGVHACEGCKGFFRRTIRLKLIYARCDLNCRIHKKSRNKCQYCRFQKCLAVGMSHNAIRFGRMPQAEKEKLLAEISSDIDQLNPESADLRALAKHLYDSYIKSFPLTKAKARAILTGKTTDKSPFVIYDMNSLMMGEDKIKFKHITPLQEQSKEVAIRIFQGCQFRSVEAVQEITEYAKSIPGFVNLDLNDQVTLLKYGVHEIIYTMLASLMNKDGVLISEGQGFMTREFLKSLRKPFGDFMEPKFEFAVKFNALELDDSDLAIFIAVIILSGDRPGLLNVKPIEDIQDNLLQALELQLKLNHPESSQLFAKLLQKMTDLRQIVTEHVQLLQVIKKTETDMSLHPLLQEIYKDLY

pIC50: 4.24
SMILES: C=C(C)C(=O)O[C@H]1CC2=C[C@H](C/C=C\[C@H]3OC(=O)C(=C)[C@H]13)OC2=O [19a]
